Test results published in patent US8952054B2, “Small molecule inhibitors of MUC1 and methods of identifying the same” (Dana-Farber Cancer Institute, Inc., priority 2010, dated 2015).
pKd: −log10 of the molar value.

Assays:
[1] = biological target: xanthine oxidase (Homo sapiens, UniProt P47989); conditions: cited from earlier work
[2] = biological target: T1, MUC1-CD (Homo sapiens, UniProt P15941); experiment: Plate-based MUC1-CD dimerization inhibition assay (primary screening); assay type: biochemical; conditions: library of Table 1
T1 construct: the 72 aa cytoplasmic domain (CD); His; made in house
T1 sequence (P15941 1184-1255 limits assumed): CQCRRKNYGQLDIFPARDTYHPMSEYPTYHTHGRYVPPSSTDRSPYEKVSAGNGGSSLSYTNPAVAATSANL
Experimental: FIG. 6—Schematic Illustration of Primary HTS Screening Assay for MUC1-CD Dimerization. MUC1-CD protein was coated on a 96 well plate and then incubated with Biotinylated MUC1-CD that binds to non-biotinylated MUC1-CD protein by dimer formation. Bound biotinylated MUC1-CD protein was detected by incubation with Streptavin-HRP+peroxidase substrate system.
FIGS. 11A-C—Identification of MUC1-CD dimerization inhibitors in a small molecule screen. (FIG. 11A) Schematic representation of the MUC1-C subunit with the 58 amino acid (aa) extracellular domain (ECD), the 28 aa transmembrane domain (TD) and the 72 aa cytoplasmic domain (CD; SEQ ID NO: 1). The sequence of MUC1-CD is included with highlighting of the CQC dimerization motif. (FIG. 11B) The assay for identification of MUC1-CD dimerization inhibitors is depicted with the following steps: (i) coating of MUC1-CD onto a microplate, (ii) adding soluble biotinylated MUC1-C and […] compound, and (iii) addition of streptavidin-HRP and then peroxide with conversion by HRP to a blue color. The signal is measured by EnVision and proportional to the amount of bound biotin-labeled MUC1-CD.
FIGS. 12A-D—Apigenin is an inhibitor of MUC1-CD dimerization in vitro and in cells. (FIG. 12A) Structures of apigenin and its analogue baicalein. Using the in vitro screening assay, dimerization of MUC1-CD was assessed in the presence of 100 μM apigenin or 100 μM baicalein each dissolved in 0.1% DMSO. The results (mean±SD of 3 determinations) are expressed as percentage of control dimerization in the presence of DMSO alone. (FIG. 12B) MUC1-CD dimerization was assessed in the presence of the indicated concentrations of apigenin in the in vitro screening assay. […] (FIG. 12C) Soluble MUC1-CD was incubated in the presence of 1% DMSO, 1 mM apigenin or 1 mM baicalein for 1 h at room temperature. Monomers and dimmers were assessed by electrophoresis in a non-reducing gel and immunoblotting with anti-MUC1-C. (FIG. 12D) 293 cells were transiently transfected to express an empty vector or GFP-MUC1-CD and Flag-MUC1-CD. At six hours after transfection, the cells were left untreated, and treated with 75 μM apigenin or baicalein for 3 days. Whole-cell lysates were precipitated with anti-Flag, and the precipitates were immunoblotted with the indicated antibodies.
Multi-well (96- or 384-well) plates are coated with non-biotinylated MUC1-CD, and biotinylated MUC1-CD is added to the plates to initiate MUC1-CD dimerization or oligomerization. A luminescent substrate for biotin binding is added to the plate, followed by washing. Resulting fluorescence is detected by luminescence detection at absorbance 405 nm. A complete schematic illustration of this assay is described in […]. Test compounds are added at multiple concentrations to the plates and, following incubation and washing, the plates are read for luminescent detection. The formation of MUC1-CD dimers is detected.
To develop a HTS assay for compounds that inhibit MUC1-CD dimerization, the inventors generated purified His-tagged MUC1-CD protein. They also generated a biotin-labeled His-tagged MUC1-CD protein using a standard biotinylation kit. Biotinylated and non-biotinylated proteins were purified through Nickel columns.
The inventors coated 96- or 384-well plates with non-biotinylated MUC1-CD protein and added biotinylated MUC1-CD protein to the plates to initiate MUC1-CD/MUC1-CD dimerization or oligomerization. They then added a substrate to the plate which will bind to the biotinylated protein (only at the dimer or oligomer state) and the resultant fluorescence was detected by luminescence detection at absorbance 405 nm. A complete schematic illustration of this assay is described in FIG. 6.
Individual compounds from the chemical libraries were then added at multiple concentrations (0.01 μM to 100 μM) to the plates and following incubation and washing, the plates were read by luminescence detection at […]. […]

[3] = system: MUC1-expressing cancer cells; experiment: Secondary screen against MUC1-expressing cancer cells in vitro; assay type: cell-based; conditions: legend: ZR-75-1 breast carcinoma cells, 2 days, anti-MUC1-C immunoblot
Experimental: ZR-75-1 breast carcinoma cells were treated with […] Kaempterol for 2 days. Total cell lysates were then analyzed by immunoblotting with anti-MUC1-C antibody (FIG. 17A) or with anti-Actin antibodies (FIG. 17B).
Initial screens were performed in the presence of compounds at a concentration of 100 μM.

[4] = cited from earlier work
[5] = biological target: T2, His-MUC1-CD (Homo sapiens, UniProt P15941); conditions: BIAcore analysis, Leng et al., 2007; read-out: dissociation constant (Kd) of MUC1-CD dimers; cited from earlier work
T2 construct: made in house
T2 sequence (P15941 1184-1255): T1 sequence (P15941 1184-1255 limits assumed)

[6] = system: severe sepsis; conditions: from about 31% without; cited from earlier work
[7] = system: hyperammonemia; conditions: oral administration, ammonium chloride-treated rats; cited from earlier work
[8] = system: mitogen-activated protein kinase kinase (MEK); conditions: cited from earlier work
[9] = biological target: T3, aryl hydrocarbon receptor (AHR) (Rattus norvegicus, UniProt P41738); conditions: rat liver cytosol, added just before TCDD; cited from earlier work
T3 construct: Addition of PD98059 to rat liver cytosol just before the addition of TCDD; from tissue; host or cells: rat liver cytosol
T3 sequence (P41738 10-853): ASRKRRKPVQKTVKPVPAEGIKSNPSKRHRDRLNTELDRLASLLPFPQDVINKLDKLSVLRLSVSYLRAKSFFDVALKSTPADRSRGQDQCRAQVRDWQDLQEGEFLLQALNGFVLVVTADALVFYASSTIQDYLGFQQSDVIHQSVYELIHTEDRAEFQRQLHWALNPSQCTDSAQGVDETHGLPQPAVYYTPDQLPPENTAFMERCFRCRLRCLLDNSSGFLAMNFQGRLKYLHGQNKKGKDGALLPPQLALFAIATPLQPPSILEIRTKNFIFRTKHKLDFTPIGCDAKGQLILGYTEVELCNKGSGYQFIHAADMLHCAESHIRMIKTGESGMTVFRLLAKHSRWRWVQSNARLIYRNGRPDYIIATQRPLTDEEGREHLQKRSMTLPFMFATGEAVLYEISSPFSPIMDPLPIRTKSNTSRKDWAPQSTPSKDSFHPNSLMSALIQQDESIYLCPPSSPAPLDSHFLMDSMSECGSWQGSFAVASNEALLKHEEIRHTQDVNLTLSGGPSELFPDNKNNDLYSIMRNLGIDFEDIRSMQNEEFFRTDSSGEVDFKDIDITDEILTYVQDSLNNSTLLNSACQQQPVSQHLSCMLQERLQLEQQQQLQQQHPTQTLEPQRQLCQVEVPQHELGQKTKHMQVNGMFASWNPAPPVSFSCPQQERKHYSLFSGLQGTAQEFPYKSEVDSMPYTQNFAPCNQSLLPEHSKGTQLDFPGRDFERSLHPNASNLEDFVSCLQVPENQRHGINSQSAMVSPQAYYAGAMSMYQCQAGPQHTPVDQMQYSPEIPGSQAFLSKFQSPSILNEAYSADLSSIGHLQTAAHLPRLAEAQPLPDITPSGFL

Chain of xanthine oxidase (P47989 whole entry, species assumed): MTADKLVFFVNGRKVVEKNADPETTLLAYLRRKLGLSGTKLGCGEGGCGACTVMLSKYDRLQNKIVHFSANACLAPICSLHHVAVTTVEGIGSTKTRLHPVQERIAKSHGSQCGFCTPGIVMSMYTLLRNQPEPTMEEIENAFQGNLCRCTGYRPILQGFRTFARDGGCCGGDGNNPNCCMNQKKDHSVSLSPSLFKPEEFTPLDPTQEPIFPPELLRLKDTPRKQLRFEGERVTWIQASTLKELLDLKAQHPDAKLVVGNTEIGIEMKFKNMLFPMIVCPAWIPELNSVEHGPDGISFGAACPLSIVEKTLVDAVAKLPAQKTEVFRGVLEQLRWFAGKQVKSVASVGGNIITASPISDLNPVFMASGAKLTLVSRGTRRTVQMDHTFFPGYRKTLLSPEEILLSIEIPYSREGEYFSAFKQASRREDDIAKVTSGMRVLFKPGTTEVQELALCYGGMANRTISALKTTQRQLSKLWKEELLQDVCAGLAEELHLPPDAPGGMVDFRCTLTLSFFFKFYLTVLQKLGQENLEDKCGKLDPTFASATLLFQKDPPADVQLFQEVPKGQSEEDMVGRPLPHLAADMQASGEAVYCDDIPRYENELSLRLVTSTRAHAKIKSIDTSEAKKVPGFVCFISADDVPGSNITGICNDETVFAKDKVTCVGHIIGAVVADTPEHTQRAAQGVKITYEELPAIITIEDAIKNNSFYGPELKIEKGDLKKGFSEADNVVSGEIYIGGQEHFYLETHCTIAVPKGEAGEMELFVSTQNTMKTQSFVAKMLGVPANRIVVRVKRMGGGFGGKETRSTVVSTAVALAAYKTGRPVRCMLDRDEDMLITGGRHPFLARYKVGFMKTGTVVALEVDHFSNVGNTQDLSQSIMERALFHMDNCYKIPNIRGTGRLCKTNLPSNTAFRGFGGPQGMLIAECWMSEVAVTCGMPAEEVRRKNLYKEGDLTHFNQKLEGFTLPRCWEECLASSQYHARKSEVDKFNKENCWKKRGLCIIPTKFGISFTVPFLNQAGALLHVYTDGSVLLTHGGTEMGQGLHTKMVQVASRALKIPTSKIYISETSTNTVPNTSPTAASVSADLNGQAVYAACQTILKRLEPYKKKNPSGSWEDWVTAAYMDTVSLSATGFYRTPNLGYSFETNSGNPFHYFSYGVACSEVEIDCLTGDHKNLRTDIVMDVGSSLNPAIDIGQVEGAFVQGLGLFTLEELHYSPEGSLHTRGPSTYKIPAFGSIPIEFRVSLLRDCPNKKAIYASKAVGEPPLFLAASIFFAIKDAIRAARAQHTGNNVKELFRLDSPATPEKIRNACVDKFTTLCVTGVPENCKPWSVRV

Molecule: O=c1c(O)c(-c2ccc(O)c(O)c2)oc2cc(O)ccc12 [Fisetin]
- inhibition of xanthine oxidase [1]: inhibit xanthine oxidase
- initial library screen result [2]: MUC1 dimerization inhibitory compounds

Molecule: O=c1c(O)c(-c2ccc(O)cc2)oc2cc(O)cc(O)c12 [Kaempferol]
- inhibition (FIGS. 17A-B) [3]: showed inhibition
- solubility in organic solvents ([4]; hot ethanol and diethyl ether): soluble in hot ethanol and diethyl ether
- solubility in water ([4]; water): slightly soluble in water

Molecule: MUC1-CD: 72-amino acid MUC1 cytoplasmic domain (SEQ ID NO:1)
- pKd [5]: 7.48

Molecule: drotrecogin alfa
- mortality [6]: about 25%

Molecule: O=c1c(O)c(-c2ccc(O)cc2O)oc2cc(O)cc(O)c12 [Morin, 3,5,7,2′,4′-pentahydroxyflavone]
- ammonia, urea, lipid peroxidation [7]: significant reduction in ammonia, urea, lipid peroxidation
- initial library screen result [2]: MUC1 dimerization inhibitory compounds

Molecule: COc1cccc(-c2cc(=O)c3ccccc3o2)c1N [PD98059, 2-(2′-amino-3′-methoxyphenyl)-oxanaphthalen-4-one]
- inhibition of MEK [8]: potent inhibitor
- initial library screen result [2]: MUC1 dimerization inhibitory compounds
- TCDD binding to AHR [9]: suppressed TCDD binding
